Test results as given in the supplement of paper PMC11061612.

What was measured:
[1] = compound: Cc1cc2ncnn2cc1Nc1ncc2c(n1)n(C1CCOCC1)c(=O)n2C [AZD7648]; conditions: max 10 µM
Method in brief: (§1)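 Cancer cell lines were plated in 1536-well plates in 7.5 μl of DMEM/F12 or RPMI with 10% FBS and kept 24 hours at 37°C and 5% CO2 before 72 hours of dosing, with final DMSO typically 0.2%. CellTiter-Glo 2.0 luminescence measured viability, scaled between blank-well and DMSO-well means. Dose responses were fitted to a two-parameter logistic curve with a non-linear mixed effects model. This fit gives the single-agent IC50.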

[2] = compound: O=c1[nH]cc(F)c(=O)[nH]1 [5-Fluorouracil]; conditions: max 20 µM
Method in brief: as §1

[3] = compound: CC(C)n1c(=O)n(C)c2cnc3cc(F)c(-c4ccc(OCCCN5CCCCC5)nc4)cc3c21 [AZD1390]; conditions: max 0.3 µM
Method in brief: as §1

[4] = compound: CC1=C(C(=CC=C1)Cl)NC(=O)C2=CN=C(S2)NC3=CC(=NC(=N3)C)N4CCN(CC4)CCO [Dasatinib]; conditions: max 2 µM
Method in brief: as §1

[5] = compound: COc1nnc2ccc(N3CCC(c4ccc(OCCN5CCN(C)C(=O)[C@H]5C)cc4)CC3)nn12 [AZD5153]; conditions: max 1 µM
Method in brief: as §1

[6] = compound: COc1cccc(OCCCN)c1-c1cc(Nc2cnc(C#N)cn2)n[nH]1 [Prexasertib]; conditions: max 1 µM
Method in brief: as §1

[7] = compound: CN(C)CCCOc1ccc(-c2ccc3ncc4c(c3c2)n(C2CCOCC2)c(=O)n4C)cn1 [AZD0156]; conditions: max 3 µM
Method in brief: as §1

[8] = compound: COc1cc2ncnc(Nc3ccc(F)c(Cl)c3)c2cc1OCCCN1CCOCC1 [Gefitinib]; conditions: max 10 µM
Method in brief: as §1

[9] = compound: CCN(CCO)CCCOc1ccc2c(Nc3cc(CC(=O)Nc4cccc(F)c4)[nH]n3)ncnc2c1 [AZD2811]; conditions: max 1 µM
Method in brief: as §1

[10] = compound: Cn1cnc2c(F)c(Nc3ccc(Br)cc3Cl)c(C(=O)NOCCO)cc21 [Selumetinib]; conditions: max 10 µM
Method in brief: as §1

[11] = compound: CS(=O)(=O)CCNCc1ccc(-c2ccc3ncnc(Nc4ccc(OCc5cccc(F)c5)c(Cl)c4)c3c2)o1 [Lapatinib]; conditions: max 10 µM
Method in brief: as §1

[12] = compound: CC(=O)Nc1cccc(-n2c(=O)n(C3CC3)c(=O)c3c(Nc4ccc(I)cc4F)n(C)c(=O)c(C)c32)c1 [Trametinib]; conditions: max 1 µM
Method in brief: as §1

[13] = compound: C1CC(C1)(C(=O)[O-])C(=O)[O-].N.N.[Pt+2] [Carboplatin]; conditions: max 10 µM
Method in brief: as §1

[14] = compound: C=CCn1c(=O)c2cnc(Nc3ccc(N4CCN(C)CC4)cc3)nc2n1-c1cccc(C(C)(C)O)n1 [AZD1775]; conditions: max 3 µM
Method in brief: as §1

[15] = compound: Nc1ccn([C@@H]2O[C@H](CO)[C@@H](O)C2(F)F)c(=O)n1 [Gemcitabine]; conditions: max 0.3 µM
Method in brief: as §1

[16] = compound: CN(CC[C@H](CSC1=CC=CC=C1)NC2=C(C=C(C=C2)S(=O)(=O)NC(=O)C3=CC=C(C=C3)N4CCC(CC4)[C@H](C5=CC=CC=C5C6=CC=C(C=C6)Cl)O)S(=O)(=O)C(F)(F)F)CCO [AZD4320]; conditions: max 1 µM
Method in brief: as §1

[17] = compound: COc1cccc2c1C(=O)c1c(O)c3c(c(O)c1C2=O)C[C@@](O)(C(=O)CO)C[C@@H]3O[C@H]1C[C@H](N)[C@H](O)[C@H](C)O1 [Doxorubicin]; conditions: max 1 µM
Method in brief: as §1

[18] = compound: C1CN(CCC1(C(=O)N[C@@H](CCO)C2=CC=C(C=C2)Cl)N)C3=NC=NC4=C3C=CN4 [AZD5363]; conditions: max 10 µM
Method in brief: as §1

[19] = compound: COc1cc(Nc2ncc3c(n2)-c2ccc(Cl)cc2C(c2c(F)cccc2OC)=NC3)ccc1C(=O)O [Alisertib]; conditions: max 10 µM
Method in brief: as §1

[20] = compound: C[C@@H](Oc1cc(-c2cnn(C3CCNCC3)c2)cnc1N)c1c(Cl)ccc(F)c1Cl [Crizotinib]; conditions: max 10 µM
Method in brief: as §1

[21] = compound: C[C@@H](Nc1cc(F)cc(F)c1)c1cc(C(=O)N(C)C)cc2c(=O)cc(N3CCOCC3)oc12 [AZD8186]; conditions: max 10 µM
Method in brief: as §1

[22] = compound: O=C(c1cc(Cc2n[nH]c(=O)c3ccccc23)ccc1F)N1CCN(C(=O)C2CC2)CC1 [Olaparib]; conditions: max 10 µM
Method in brief: as §1

[23] = compound: CCc1c2c(nc3ccc(O)cc13)-c1cc3c(c(=O)n1C2)COC(=O)[C@]3(O)CC [SN-38]; conditions: max 0.3 µM
Method in brief: as §1

[24] = compound: NC1(c2ccc(-c3nc4ccn5c(=O)[nH]nc5c4cc3-c3ccccc3)cc2)CCC1 [MK-2206]; conditions: max 10 µM
Method in brief: as §1

[25] = compound: CC1=CN2[C@@H](C1)C=NC3=CC(=C(C=C3C2=O)OC)OCCCCCOC4=C(C=C5C(=C4)N=C[C@@H]6CC(=CN6C5=O)C)OC [SG3199]; conditions: max 0.001 µM
Method in brief: as §1

[26] = compound: Cc1c2c(nn1C)CSCc1cc(n(C)n1)CSc1cc(c3ccccc3c1)OCCCc1c(C(=O)O)n(C)c3c-2c(Cl)ccc13 [AZD5991]; conditions: max 1 µM
Method in brief: as §1

[27] = compound: C[C@@H](c1ccc2nccn2c1)n1nnc2ncc(-c3cnn(C)c3)nc21 [Savolitinib]; conditions: max 1 µM
Method in brief: as §1

[28] = compound: COc1cc([C@@H]2c3cc4c(cc3[C@@H](O[C@@H]3O[C@@H]5CO[C@@H](C)O[C@H]5[C@H](O)[C@H]3O)[C@H]3COC(=O)[C@H]23)OCO4)cc(OC)c1O [Etoposide]; conditions: max 10 µM
Method in brief: as §1

[29] = compound: CC(=O)c1c(C)c2cnc(Nc3ccc(N4CCNCC4)cn3)nc2n(C2CCCC2)c1=O [Palbociclib]; conditions: max 10 µM
Method in brief: as §1

[30] = compound: N#Cc1cnc(Nc2cc(NC[C@H]3CNCCO3)c(C(F)(F)F)cn2)cn1 [SRA737]; conditions: max 10 µM
Method in brief: as §1

[31] = compound: CC1(C)CCC(CN2CCN(c3ccc(C(=O)NS(=O)(=O)c4ccc(NCC5CCOCC5)c([N+](=O)[O-])c4)c(Oc4cnc5[nH]ccc5c4)c3)CC2)=C(c2ccc(Cl)cc2)C1 [Venetoclax]; conditions: max 1 µM
Method in brief: as §1

[32] = compound: Cc1nc(-c2cn3c(n2)-c2ccc(-c4cnn(C(C)(C)C(N)=O)c4)cc2OCC3)n(C(C)C)n1 [Taselisib]; conditions: max 10 µM
Method in brief: as §1

[33] = compound: O=C(Nc1ccc2[nH]nc(-c3ccncc3)c2c1)[C@@H]1CCN(CC(=O)N2CCN(c3ccc(-c4ncccn4)cc3)CC2)C1; conditions: max 5 µM
Method in brief: as §1

[34] = compound: C[C@@H]1COCCN1C2=NC(=NC(=C2)C3(CC3)[S@](=N)(=O)C)C4=C5C=CNC5=NC=C4 [AZD6738]; conditions: max 10 µM
Method in brief: as §1

[35] = compound: CC(=O)O[C@H]1C(=O)[C@@]2(C)[C@H]([C@H](OC(=O)c3ccccc3)[C@]3(O)C[C@H](OC(=O)[C@H](O)[C@@H](NC(=O)c4ccccc4)c4ccccc4)C(C)=C1C3(C)C)[C@]1(OC(C)=O)CO[C@@H]1C[C@@H]2O [Paclitaxel]; conditions: max 3 µM
Method in brief: as §1

Cell Line	IC50, cell viability 72 h [1]	IC50, cell viability 72 h [2]	IC50, cell viability 72 h [3]	IC50, cell viability 72 h [4]	IC50, cell viability 72 h [5]	IC50, cell viability 72 h [6]	IC50, cell viability 72 h [7]	IC50, cell viability 72 h [8]	IC50, cell viability 72 h [9]	IC50, cell viability 72 h [10]	IC50, cell viability 72 h [11]	IC50, cell viability 72 h [12]	IC50, cell viability 72 h [13]	IC50, cell viability 72 h [14]	IC50, cell viability 72 h [15]	IC50, cell viability 72 h [16]	IC50, cell viability 72 h [17]	IC50, cell viability 72 h [18]	IC50, cell viability 72 h [19]	IC50, cell viability 72 h [20]	IC50, cell viability 72 h [21]	IC50, cell viability 72 h [22]	IC50, cell viability 72 h [23]	IC50, cell viability 72 h [24]	IC50, cell viability 72 h [25]	IC50, cell viability 72 h [26]	IC50, cell viability 72 h [27]	IC50, cell viability 72 h [28]	IC50, cell viability 72 h [29]	IC50, cell viability 72 h [30]	IC50, cell viability 72 h [31]	IC50, cell viability 72 h [32]	IC50, cell viability 72 h [33]	IC50, cell viability 72 h [34]	IC50, cell viability 72 h [35]
RKO (Colorectal Carcinoma)	> 10 µM	8.59 µM	> 0.3 µM	> 2 µM	0.0672 µM	0.0354 µM	> 3 µM	> 10 µM	> 1 µM	6.52 µM	> 10 µM	0.0753 µM	> 10 µM	0.787 µM	0.00984 µM	> 1 µM	0.24 µM	5.24 µM	7.23 µM	9.5 µM	> 10 µM	> 10 µM	0.0165 µM	> 10 µM	> 0.001 µM	> 1 µM	> 1 µM	6.79 µM	> 10 µM	7.18 µM	> 1 µM	2.95 µM	0.797 µM	2.04 µM	0.00391 µM
RPMI-6666 (Non-Cancerous)	> 10 µM	3.43 µM	> 0.3 µM	0.17 µM	0.154 µM	0.00581 µM	> 3 µM	> 10 µM	0.469 µM	> 10 µM	> 10 µM	> 1 µM	> 10 µM	0.234 µM	0.00575 µM	0.0371 µM	0.0583 µM	2.95 µM	0.406 µM	6.93 µM	1.33 µM	> 10 µM	0.00231 µM	4.64 µM	> 0.001 µM	0.731 µM	> 1 µM	0.401 µM	8.62 µM	2.46 µM	0.174 µM	0.621 µM	> 5 µM	3.9 µM	0.00363 µM
RT-112 (Bladder Carcinoma)	> 10 µM	> 20 µM	> 0.3 µM	> 2 µM	> 1 µM	0.0312 µM	> 3 µM	> 10 µM	> 1 µM	> 10 µM	> 10 µM	0.305 µM	> 10 µM	0.549 µM	0.291 µM	> 1 µM	> 1 µM	> 10 µM	2.22 µM	> 10 µM	> 10 µM	> 10 µM	0.255 µM	> 10 µM	> 0.001 µM	0.413 µM	> 1 µM	> 10 µM	> 10 µM	> 10 µM	> 1 µM	2.95 µM	3.6 µM	4.41 µM	0.00952 µM
SH-4 (Melanoma)	> 10 µM	> 20 µM	> 0.3 µM	> 2 µM	0.432 µM	0.187 µM	> 3 µM	> 10 µM	> 1 µM	0.259 µM	> 10 µM	0.00259 µM	> 10 µM	1.49 µM	> 0.3 µM	> 1 µM	> 1 µM	> 10 µM	> 10 µM	> 10 µM	> 10 µM	> 10 µM	> 0.3 µM	> 10 µM	> 0.001 µM	> 1 µM	> 1 µM	> 10 µM	> 10 µM	> 10 µM	> 1 µM	> 10 µM	0.111 µM	> 10 µM	2.55 µM
